From patent publication US20150031102A1, “METHODS AND COMPOSITIONS FOR ENHANCED PRODUCTION OF BUTANOL BY CLOSTRIDIA” (Butrolix LLC, priority 2012, published 2015)

System: Clostridium acetobutylicum strain ATCC 824
Assay: Sequential batch transfer in 24-well culture plates (butanol, residual glucose, butanol yield and productivity)
Type: cell-based
Details: for Residual glucose concentration: initial glucose 60 g/L
Method: Each well contained 1.5 mL of growth medium. Peptide was added to each well at the indicated concentration (0, 25, 50, and 100 nM). Every 24 hours fresh medium and peptide treatment were added to a new column of wells then 1.5 μL of the previous day culture was transferred to the new well. Wells were harvested for glucose and butanol analysis after 96 hours of growth. Transfers 1, 4, 7, 10, 13, 16, […].
Briefly, Clostridium spores were germinated in a suitable growth medium for 18-24 hours then […] was transferred to 1.5 mL of fresh medium in each of four wells on a 24-well culture plate. Three of the wells had been treated with 25 nM, 50 nM and 100 nM of peptide, respectively while the fourth well was untreated. Thereafter, every 24 hours […] of each subculture was transferred to 1.5 mL of fresh medium that contained the same peptide treatment or no treatment. Transfers of successive subcultures were done for 24 days, and each subculture was grown for 96 hours before being harvested. Culture supernatants were recovered following centrifugation and were analyzed for butanol and residual glucose concentrations. Determination of optimum peptide treatment levels was based on a graphical comparison of the concentration of butanol in each of the four culture wells for sequential transfers 1, 4, 7, 10, 13, 16, 19, 22 and 24.
Clostridium acetobutylicum strain ATCC 824 was used in all experiments and the growth medium used for sequential batch transfer, time course, and continuous culture experiments contained yeast extract, casamino acids, L-cysteine, L-asparagine, phosphate buffer, trace minerals, and 6% glucose. What are believed to be quorum-sensing peptides that were used in the experiments were chemically synthesized peptides SEQ ID NO: 143 (amino acid sequence: SYPGWSW) and SEQ ID NO: 144 (amino acid sequence: ILILISG). Routine growth of the bacteria as well as the sequential batch and time course experiments were conducted in a Form a Scientific Model 1029 anaerobic gas chamber at 32° C. Continuous cultures were performed at 32° C. using duplicate New Brunswick Scientific BioFlo 3000 apparati with a dilution rate of 0.01 volume per hour, 75 rpm agitation, and nitrogen gas sparging. Optical density of culture samples was measured at 600 nm in a Beckman DU 600 series spectrophotometer and glucose was analyzed using a YSI Model 2700 Select Biochemistry Analyzer with internal glucose calibration. Butanol concentrations were determined by measuring experimental and standard samples using a Varian Saturn 3 Gas Chromatograph/Mass Spectrometer and calculating butanol concentrations using standard curves.
(§1) Sequential batch transfer experiments were carried out in 24-well culture plates that contained 1.5 mL of medium per well. Peptide was added to each well at the indicated concentrations of 0 nM (control), 25 nM, 50 nM, or 100 nM. Every 24 hours, fresh medium and peptide treatments were added to a new column of wells. Then, 1.5 uL of the previous day culture was transferred to the new well. Wells were harvested for glucose and butanol analysis after 96 hours of growth; transfers 1, 4, 7, 10, 13, 16, 19, 22, and 24 were analyzed. Two representative experiments are shown in Tables 30 and 31 and FIGS. 14 and 15.
as §1, with “32” for “30”, “33” for “31”, “16” for “14”, “17.” for “15.”

[1] = 50 nM peptide, transfer 19, after 96 hours of culture, Expt. 1
[2] = 50 nM peptide, transfer 22, after 96 hours of culture, Expt. 1
[3] = 50 nM peptide, transfer 24, after 96 hours of culture, Expt. 1
[4] = 100 nM peptide, transfer 1, after 96 hours of culture, Expt. 1
[5] = 100 nM peptide, transfer 4, after 96 hours of culture, Expt. 1
[6] = 100 nM peptide, transfer 7, after 96 hours of culture, Expt. 1
[7] = 100 nM peptide, transfer 10, after 96 hours of culture, Expt. 1
[8] = 100 nM peptide, transfer 13, after 96 hours of culture, Expt. 1
[9] = 100 nM peptide, transfer 16, after 96 hours of culture, Expt. 1
[10] = 100 nM peptide, transfer 19, after 96 hours of culture, Expt. 1
[11] = 100 nM peptide, transfer 22, after 96 hours of culture, Expt. 1
[12] = 100 nM peptide, transfer 24, after 96 hours of culture, Expt. 1
[13] = BP1106213 first experiment, 25 nM, transfer 10

ILILISG (Derived from Clostridium acetobutylicum SEQ ID NO: 110) [peptide SEQ ID NO: 144]
Butanol concentration [1]: 8.40 g/L
Butanol productivity [1]: 0.09 g butanol/L-h
Butanol yield [1]: 0.14 g butanol/g/glucose
Butanol concentration (50 nM peptide, transfer 19, after 96 hours of culture, Expt. 2 (repeat), Table 58): 4.66 g/L
Residual glucose concentration [1]: 0.0 g/L
Residual glucose concentration (50 nM peptide, transfer 19, after 96 hours of culture, Expt. 2 (repeat), Table 45): 49.2 g/L
Butanol concentration [2]: 14.14 g/L
Butanol productivity [2]: 0.15 g butanol/L-h
Butanol yield [2]: 0.23 g butanol/g/glucose
Butanol concentration (50 nM peptide, transfer 22, after 96 hours of culture, Expt. 2 (repeat), Table 58): 4.22 g/L
Residual glucose concentration [2]: 12.6 g/L
Residual glucose concentration (50 nM peptide, transfer 22, after 96 hours of culture, Expt. 2 (repeat), Table 45): 40.2 g/L
Butanol concentration [3]: 6.90 g/L
Butanol productivity [3]: 0.07 g butanol/L-h
Butanol yield [3]: 0.11 g butanol/g/glucose
Butanol concentration (50 nM peptide, transfer 24, after 96 hours of culture, Expt. 2 (repeat), Table 58): 1.87 g/L
Residual glucose concentration [3]: 43.2 g/L
Residual glucose concentration (50 nM peptide, transfer 24, after 96 hours of culture, Expt. 2 (repeat), Table 45): 0.0 g/L
Butanol concentration [4]: 1.78 g/L
Butanol productivity [4]: 0.02 g butanol/L-h
Butanol yield [4]: 0.03 g butanol/g/glucose
Butanol concentration (100 nM peptide, transfer 1, after 96 hours of culture, Expt. 2 (repeat), Table 58): 1.19 g/L
Residual glucose concentration [4]: 48.5 g/L
Residual glucose concentration (100 nM peptide, transfer 1, after 96 hours of culture, Expt. 2 (repeat), Table 45): 55.8 g/L
Butanol concentration [5]: 7.17 g/L
Butanol productivity [5]: 0.07 g butanol/L-h
Butanol yield [5]: 0.12 g butanol/g/glucose
Butanol concentration (100 nM peptide, transfer 4, after 96 hours of culture, Expt. 2 (repeat), Table 58): 2.12 g/L
Residual glucose concentration [5]: 0.0 g/L
Residual glucose concentration (100 nM peptide, transfer 4, after 96 hours of culture, Expt. 2 (repeat), Table 45): 49.9 g/L
Butanol concentration [6]: 5.62 g/L
Butanol productivity [6]: 0.06 g butanol/L-h
Butanol yield [6]: 0.09 g butanol/g/glucose
Butanol concentration (100 nM peptide, transfer 7, after 96 hours of culture, Expt. 2 (repeat), Table 58): 2.11 g/L
Residual glucose concentration [6]: 0.0 g/L
Residual glucose concentration (100 nM peptide, transfer 7, after 96 hours of culture, Expt. 2 (repeat), Table 45): 49.4 g/L
Butanol concentration [7]: 7.91 g/L
Butanol productivity [7]: 0.08 g butanol/L-h
Butanol yield [7]: 0.13 g butanol/g/glucose
Butanol concentration (100 nM peptide, transfer 10, after 96 hours of culture, Expt. 2 (repeat), Table 58): 2.07 g/L
Residual glucose concentration [7]: 0.1 g/L
Residual glucose concentration (100 nM peptide, transfer 10, after 96 hours of culture, Expt. 2 (repeat), Table 45): 51.2 g/L
Butanol concentration [8]: 6.37 g/L
Butanol productivity [8]: 0.07 g butanol/L-h
Butanol yield [8]: 0.11 g butanol/g/glucose
Butanol concentration (100 nM peptide, transfer 13, after 96 hours of culture, Expt. 2 (repeat), Table 58): 1.54 g/L
Residual glucose concentration [8]: 0.1 g/L
Residual glucose concentration (100 nM peptide, transfer 13, after 96 hours of culture, Expt. 2 (repeat), Table 45): 49.7 g/L
Butanol concentration [9]: 7.11 g/L
Butanol productivity [9]: 0.07 g butanol/L-h
Butanol yield [9]: 0.12 g butanol/g/glucose
Butanol concentration (100 nM peptide, transfer 16, after 96 hours of culture, Expt. 2 (repeat), Table 58): 5.68 g/L
Residual glucose concentration [9]: 0.1 g/L
Residual glucose concentration (100 nM peptide, transfer 16, after 96 hours of culture, Expt. 2 (repeat), Table 45): 0.0 g/L
Butanol concentration [10]: 5.55 g/L
Butanol productivity [10]: 0.06 g butanol/L-h
Butanol yield [10]: 0.09 g butanol/g/glucose
Butanol concentration (100 nM peptide, transfer 19, after 96 hours of culture, Expt. 2 (repeat), Table 58): 2.61 g/L
Residual glucose concentration [10]: 0.0 g/L
Residual glucose concentration (100 nM peptide, transfer 19, after 96 hours of culture, Expt. 2 (repeat), Table 45): 0.0 g/L
Butanol concentration [11]: 13.86 g/L
Butanol productivity [11]: 0.14 g butanol/L-h
Butanol yield [11]: 0.23 g butanol/g/glucose
Butanol concentration (100 nM peptide, transfer 22, after 96 hours of culture, Expt. 2 (repeat), Table 58): 3.41 g/L
Residual glucose concentration [11]: 0.6 g/L
Residual glucose concentration (100 nM peptide, transfer 22, after 96 hours of culture, Expt. 2 (repeat), Table 45): 0.1 g/L
Butanol concentration [12]: 7.20 g/L
Butanol productivity [12]: 0.07 g butanol/L-h
Butanol yield [12]: 0.12 g butanol/g/glucose
Butanol concentration (100 nM peptide, transfer 24, after 96 hours of culture, Expt. 2 (repeat), Table 58): 3.29 g/L
Residual glucose concentration [12]: 0.1 g/L
Residual glucose concentration (100 nM peptide, transfer 24, after 96 hours of culture, Expt. 2 (repeat), Table 45): 0.1 g/L
Increase in butanol yield (BP1106213, batch cultures (summary of findings)): more than 50%
Transfers over which butanol production was enhanced (BP1106213, sequential batch cultures (summary of findings)): transfer 4 through transfer 16
Butanol productivity [13]: 0.12 g butanol/1-hour
Butanol yield [13]: 0.20 g butanol/g glucose
Butanol yield and productivity greater than untreated control [13]: more than 50%
Effect on butanol production versus untreated control (BP1106213 first experiment, 100 nM): generally resulted in decreased butanol production, or no difference from the untreated control
Glucose consumption (BP1106213 first experiment, all treated and untreated cultures, transfer 4 through transfer 19): ~100%
Effect on butanol production versus untreated control (BP1106213 repeated (second) experiment, on the whole): inhibit butanol production
Increase in butanol over untreated control (SEQ ID NO: 144 first experiment, 25 nM, transfer 4): 31%
Increase in butanol over untreated control (SEQ ID NO: 144 first experiment, 25 nM, transfer 10): 57%
Increase in butanol over untreated control (SEQ ID NO: 144 first experiment, 25 nM, transfer 16): 21%
Increase in butanol over untreated control (SEQ ID NO: 144 first experiment, 50 nM, transfer 4): 25%
Increase in butanol over untreated control (SEQ ID NO: 144 first experiment, 50 nM, transfer 10): 46%
Increase in butanol over untreated control (SEQ ID NO: 144 first experiment, 50 nM, transfer 16): 35%
Increase in butanol over untreated control (SEQ ID NO: 144 second experiment, 25 nM, transfer 13): 283%
Increase in butanol over untreated control (SEQ ID NO: 144 second experiment, 25 nM, transfer 16): 10%
Increase in butanol over untreated control (SEQ ID NO: 144 second experiment, 50 nM, transfer 13): 85%
Effect on differentiation and butanol production (some sequential cultures): inducer of differentiation and butanol production
